Where a name gives a salt, the structure may show the parent alone.
The molecules below were run against T1, human liver glycogen phosphorylase (Homo sapiens, UniProt P06737) (assay: Liver glycogen phosphorylase activity, forward reaction system (NADPH detection at 340 nm)). Conditions: enzyme inhibitory activity against recombinant human liver glycogen phosphorylase (Sf9 cell lysate), room temperature, 75 minutes.
T1 construct: made in house; host or cells: Sf9 insect cells (suspension of disrupted cells, diluted in BES buffer, not purified)
T1 sequence (P06737 1-847): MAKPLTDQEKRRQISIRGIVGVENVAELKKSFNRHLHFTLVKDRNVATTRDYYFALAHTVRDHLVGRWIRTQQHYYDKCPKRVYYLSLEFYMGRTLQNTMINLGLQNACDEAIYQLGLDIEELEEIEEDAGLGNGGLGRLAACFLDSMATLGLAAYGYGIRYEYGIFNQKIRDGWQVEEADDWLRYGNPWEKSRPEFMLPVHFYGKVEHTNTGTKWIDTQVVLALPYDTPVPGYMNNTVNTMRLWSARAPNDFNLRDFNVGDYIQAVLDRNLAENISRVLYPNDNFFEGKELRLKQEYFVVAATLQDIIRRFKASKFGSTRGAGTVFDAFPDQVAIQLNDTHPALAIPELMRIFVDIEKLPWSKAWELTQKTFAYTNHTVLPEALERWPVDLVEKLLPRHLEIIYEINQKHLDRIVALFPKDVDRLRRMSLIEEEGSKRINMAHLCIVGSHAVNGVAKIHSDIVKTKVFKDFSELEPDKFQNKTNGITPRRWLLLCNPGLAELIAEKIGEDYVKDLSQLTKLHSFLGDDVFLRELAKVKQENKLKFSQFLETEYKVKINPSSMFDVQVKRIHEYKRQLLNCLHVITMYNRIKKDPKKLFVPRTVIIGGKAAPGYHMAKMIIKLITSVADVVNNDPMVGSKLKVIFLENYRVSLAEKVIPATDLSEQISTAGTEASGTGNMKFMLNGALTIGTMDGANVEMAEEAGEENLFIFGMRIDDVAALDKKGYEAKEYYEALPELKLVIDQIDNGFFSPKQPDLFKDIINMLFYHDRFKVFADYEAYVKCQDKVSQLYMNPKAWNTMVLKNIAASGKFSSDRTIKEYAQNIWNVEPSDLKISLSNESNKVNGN
Type: biochemical
Experimental: The glycogen phosphorylase activity was determined by a method using a forward reaction system.
The following method was used to determine the glycogen phosphorylase activity using a forward reaction system. Glucose-1-phosphate generated from glycogen by glycogen phosphorylase was converted to glucono-δ-lactone-6-phosphate by transphosphorylation and dehydrogenation reactions using phosphoglucomutase and glucose-6-phosphate dehydrogenase (G6PDH). At this time, NADPH generated from NADP in the dehydrogenation reaction by G6PDH was detected.
An enzyme solution of human liver glycogen phosphorylase was obtained by diluting with 100 mmol/L BES buffer (pH 6.8, containing 2 mmol/L EDTA) a suspension disrupted Sf9 cells in which a recombinant human liver glycogen phosphorylase was forcibly expressed. Phosphate buffer (16 mmol/L KH2PO4, containing 24 mmol/L Na2HPO4) was used as a substrate solution. A mixture of 8 U/mL phosphoglucomutase and 60 U/mL G6PDH was prepared with BES buffer. A reaction buffer (1.4 mmol/L NADP, 30 mmol/L MgCl2, 8 μmol/L glucose-1,6-diphosphate, 8 mg/mL glycogen, 40 mmol/L BES, containing 0.8 mmol/L EDTA) and a glucose solution (75 mmol/L glucose and 100 mmol/L BES, containing 2 mmol/L EDTA) were prepared. A test substance was dissolved in 1% DMSO aqueous solution.
To a mixture of the glucose solution (20 μL), the substrate solution (20 μL), the reaction buffer (100 μL), and the test substance (20 μL), the recombinant human liver glycogen phosphorylase solution (20 μL), and a mixture (20 μL) of phosphoglucomutase and G6PDH were added to initiate an enzymatic reaction. To a control, 1% DMSO aqueous solution was added instead of the test substance. A solution to which the substrate was not added was used as a blank. After initiation of the reaction, absorbance at 340 nm was measured immediately. The reaction was performed at room temperature for 75 minutes, and then absorbance at 340 nm was measured again. The enzyme activity was obtained by deducting the change in absorbance of the blank for 75 minutes from the change in absorbance over 75 minutes. The inhibition rate (%) of the test substance was calculated by “(1−(enzyme activity of test substance)/(enzyme activity of control))×100”.
“IC50” represents an enzyme inhibitory activity against human liver glycogen phosphorylase.

| Structure (SMILES) | IC50 [nM] |
| --- | --- |
| Cc1nc(-c2ccccc2F)c(CNC(=O)c2cc(NC(=O)c3cc(F)c(F)cc3Cl)[nH]n2)o1 [Example 1-27, 5-(2-chloro-4,5-difluoro-benzoylamino)-1H-pyrazole-3-carboxylic acid [4-(2-fluoro-phenyl)-2-methyl-oxazol-5-ylmethyl]-amide] | < 100 |
| Cc1nc(CCc2ccccc2)oc1CNC(=O)c1cc(NC(=O)c2cc(F)c(F)cc2Cl)[nH]n1 [Example 1-42, 5-(2-chloro-4,5-difluoro-benzoylamino)-1H-pyrazole-3-carboxylic acid (4-methyl-2-phenethyl-oxazol-5-ylmethyl)-amide] | < 100 |
| COC(=O)c1nc(C)c(CNC(=O)c2cc(NC(=O)c3cc(F)c(F)cc3Cl)[nH]n2)o1 [Example 1-50, 5-(2-chloro-4,5-difluoro-benzoylamino)-1H-pyrazole-3-carboxylic acid (2-methoxycarbonyl-4-methyl-oxazol-5-ylmethyl)-amide] | < 100 |
| COc1cccc(-c2nc(C)oc2CNC(=O)c2cc(NC(=O)c3cc(F)c(F)cc3Cl)[nH]n2)c1 [Example 1-31, 5-(2-chloro-4,5-difluoro-benzoylamino)-1H-pyrazole-3-carboxylic acid [4-(3-methoxy-phenyl)-2-methyl-oxazol-5-ylmethyl]-amide] | < 100 |
| Cc1nc(C(=O)N2CCCCC2)oc1CNC(=O)c1cc(NC(=O)c2cc(F)c(F)cc2Cl)[nH]n1 [Example 3-15, 5-(2-chloro-4,5-difluoro-benzoylamino)-1H-pyrazole-3-carboxylic acid [4-methyl-2-(piperidine-1-carbonyl)-oxazol-5-ylmethyl]-amide] | < 100 |
| Cc1nc(CO)c(CNC(=O)c2cc(NC(=O)c3cc(F)c(F)cc3Cl)[nH]n2)o1 [Example 1-35, 5-(2-chloro-4,5-difluoro-benzoylamino)-1H-pyrazole-3-carboxylic acid (4-hydroxymethyl-2-methyl-oxazol-5-ylmethyl)-amide] | < 100 |
| O=C(NCc1cncnc1C1CC1)c1cc(NC(=O)c2cc(F)c(F)cc2Cl)[nH]n1 [Example 1-81, 5-(2-chloro-4,5-difluoro-benzoylamino)-1H-pyrazole-3-carboxylic acid (4-cyclopropyl-pyrimidin-5-ylmethyl)-amide] | < 100 |
| CC(=O)NCc1nc(C)c(CNC(=O)c2cc(NC(=O)c3cc(F)c(F)cc3Cl)[nH]n2)o1 [Example 3-12, 5-(2-chloro-4,5-difluoro-benzoylamino)-1H-pyrazole-3-carboxylic acid [2-(acetylamino-methyl)-4-methyl-oxazol-5-ylmethyl]-amide dihydrochloride] | < 100 |
| Cc1nc(-c2cccc(F)c2)c(CNC(=O)c2cc(NC(=O)c3cc(F)c(F)cc3Cl)[nH]n2)o1 [Example 1-26, 5-(2-chloro-4,5-difluoro-benzoylamino)-1H-pyrazole-3-carboxylic acid [4-(3-fluoro-phenyl)-2-methyl-oxazol-5-ylmethyl]-amide] | < 100 |
| Cc1nc(-c2ccc(Cl)cc2)c(CNC(=O)c2cc(NC(=O)c3cc(F)c(F)cc3Cl)[nH]n2)o1 [Example 1-28, 5-(2-chloro-4,5-difluoro-benzoylamino)-1H-pyrazole-3-carboxylic acid [4-(4-chloro-phenyl)-2-methyl-oxazol-5-ylmethyl]-amide] | < 100 |

Further lines, results first:

| IC50 [nM] | Structure (SMILES) |
| --- | --- |
| 100 to 300 | O=C(O)c1cc(CNC(=O)c2cc(NC(=O)c3cc(F)c(F)cc3Cl)[nH]n2)on1 [Example 3-3, 5-(2-chloro-4,5-difluoro-benzoylamino)-1H-pyrazole-3-carboxylic acid (3-carboxy-isoxazol-5-ylmethyl)-amide] |
| < 100 | Cc1nc(Cn2nnc(CNC(=O)c3cc(NC(=O)c4cc(F)c(F)cc4Cl)[nH]n3)c2C)cs1 [Example 1-65, 5-(2-chloro-4,5-difluoro-benzoylamino)-1H-pyrazole-3-carboxylic acid [5-methyl-1-(2-methyl-thiazol-4-ylmethyl)-1H-[1,2,3]triazol-4-ylmethyl]-amide] |
| < 100 | Cc1noc(-c2ccnc(Cl)c2)c1CNC(=O)c1cc(NC(=O)c2cc(F)c(F)cc2Cl)[nH]n1 [Example 1-20, 5-(2-chloro-4,5-difluoro-benzoylamino)-1H-pyrazole-3-carboxylic acid [5-(2-chloro-pyridin-4-yl)-3-methylisoxazol-4-ylmethyl]-amide] |
| < 100 | O=C(NCc1nnc(Cc2ccccc2)o1)c1cc(NC(=O)c2cc(F)c(F)cc2Cl)[nH]n1 [Example 1-74, 5-(2-chloro-4,5-difluoro-benzoylamino)-1H-pyrazole-3-carboxylic acid (5-benzyl-[1,3,4]oxadiazol-2-ylmethyl)-amide] |
| < 100 | Cc1nc(Sc2ccccc2)oc1CNC(=O)c1cc(NC(=O)c2cc(F)c(F)cc2Cl)[nH]n1 [Example 1-49, 5-(2-chloro-4,5-difluoro-benzoylamino)-1H-pyrazole-3-carboxylic acid (4-methyl-2-phenylsulfanyl-oxazol-5-ylmethyl)-amide] |
| < 100 | Cc1nc(COC(=O)c2ccccc2)c(CNC(=O)c2cc(NC(=O)c3cc(F)c(F)cc3Cl)[nH]n2)o1 [Example 3-5, 5-(2-chloro-4,5-difluoro-benzoylamino)-1H-pyrazole-3-carboxylic acid (4-benzoyloxymethyl-2-methyl-oxazol-5-ylmethyl)-amide] |
| < 100 | Cc1ncc(CNC(=O)c2cc(NC(=O)c3cc(F)c(F)cc3Cl)[nH]n2)c(-c2oc(C)nc2C)n1 [Example 1-83, 5-(2-chloro-4,5-difluoro-benzoylamino)-1H-pyrazole-3-carboxylic acid [4-(2,4-dimethyl-oxazol-5-yl)-2-methyl-pyrimidin-5-ylmethyl]-amide] |
| < 100 | Cc1nc(COc2ccccc2)oc1CNC(=O)c1cc(NC(=O)c2cc(F)c(F)cc2Cl)[nH]n1 [Example 1-44, 5-(2-chloro-4,5-difluoro-benzoylamino)-1H-pyrazole-3-carboxylic acid (4-methyl-2-phenoxymethyl-oxazol-5-ylmethyl)-amide] |
| < 100 | Cc1nnsc1-c1nnc(CNC(=O)c2cc(NC(=O)c3cc(F)c(F)cc3Cl)[nH]n2)o1 [Example 1-78, 5-(2-chloro-4,5-difluoro-benzoylamino)-1H-pyrazole-3-carboxylic acid [5-(4-methyl-[1,2,3]thiadiazol-5-yl)-[1,3,4]oxadiazol-2-ylmethyl]-amide] |
| < 100 | CCOC(=O)c1nc(C)oc1CNC(=O)c1cc(NC(=O)c2cc(F)c(F)cc2Cl)[nH]n1 [Example 1-34, 5-(2-chloro-4,5-difluoro-benzoylamino)-1H-pyrazole-3-carboxylic acid (4-ethoxycarbonyl-2-methyl-oxazol-5-ylmethyl)-amide] |
| < 100 | Cc1ncc(CNC(=O)c2cc(NC(=O)c3cc(F)c(F)cc3Cl)[nH]n2)c(C2CC2)n1 [Example 1-68, 5-(2-chloro-4,5-difluoro-benzoylamino)-1H-pyrazole-3-carboxylic acid (4-cyclopropyl-2-methyl-pyrimidin-5-ylmethyl)-amide] |
| < 100 | O=C(NCc1csc(-c2ccc(Cl)cc2)n1)c1cc(NC(=O)c2cc(F)c(F)cc2Cl)[nH]n1 [Example 1-5, 5-(2-chloro-4,5-difluoro-benzoylamino)-1H-pyrazole-3-carboxylic acid [2-(4-chloro-phenyl)-thiazol-4-ylmethyl]-amide] |
